Test results: PubChem BioAssay AID2060513 (Molecular Pharmacology Branch, DTP, NCI, 2025)
pIC50: −log10 of the molar value.

Tested on: 299254-011-R-J1-PDC complex spheroids viability
Experiment: Anticancer human tumor 299254-011-R-J1-PDC patient-derived melanoma cell line growth inhibition [GQUAD]
Details: for pIC50: curve of first compound; for viability, T/C: stronger effect = lower value
Outline: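 Viability of tumor cells grown as complex spheroids with endothelial and stromal cells, exposed to drug combinations. Top concentration at or near clinical Cmax (else 10 microM), diluted in half-log increments.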

[1] = second compound 0.0316 µM, first compound 0.0316 µM
[2] = second compound 0.0316 µM, first compound 0.1 µM
[3] = second compound 0.0316 µM, first compound 0.316 µM
[4] = second compound 0.0316 µM, first compound 1 µM
[5] = second compound 0.0316 µM, first compound 3.16 µM
[6] = second compound 0.0316 µM, first compound 10 µM
[7] = second compound 0.1 µM, first compound 0.0316 µM
[8] = second compound 0.1 µM, first compound 0.1 µM
[9] = second compound 0.1 µM, first compound 0.316 µM
[10] = second compound 0.1 µM, first compound 1 µM
[11] = second compound 0.1 µM, first compound 3.16 µM
[12] = second compound 0.1 µM, first compound 10 µM
[13] = second compound 0.316 µM, first compound 0.0316 µM
[14] = second compound 0.316 µM, first compound 0.1 µM
[15] = second compound 0.316 µM, first compound 0.316 µM
[16] = second compound 0.316 µM, first compound 1 µM
[17] = second compound 0.316 µM, first compound 3.16 µM
[18] = second compound 0.316 µM, first compound 10 µM
[19] = second compound 1 µM, first compound 0.0316 µM
[20] = second compound 1 µM, first compound 0.1 µM
[21] = second compound 1 µM, first compound 0.316 µM
[22] = second compound 1 µM, first compound 1 µM
[23] = second compound 1 µM, first compound 3.16 µM
[24] = second compound 1 µM, first compound 10 µM
[25] = second compound 3.16 µM, first compound 0.0316 µM
[26] = second compound 3.16 µM, first compound 0.1 µM
[27] = second compound 3.16 µM, first compound 0.316 µM
[28] = second compound 3.16 µM, first compound 1 µM
[29] = second compound 3.16 µM, first compound 3.16 µM
[30] = second compound 3.16 µM, first compound 10 µM
[31] = second compound 10 µM, first compound 0.0316 µM
[32] = second compound 10 µM, first compound 0.1 µM
[33] = second compound 10 µM, first compound 0.316 µM
[34] = second compound 10 µM, first compound 1 µM
[35] = second compound 10 µM, first compound 3.16 µM
[36] = second compound 10 µM, first compound 10 µM
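Also: spheroids exposed to the agents for seven days before readout.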
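For viability, T/C in this document: percent viability relative to DMSO vehicle control wells = 100%.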

## COc1cc(C2c3cc4c(cc3C(OC3OC5COC(C)OC5C(O)C3O)C3COC(=O)C23)OCO4)cc(OC)c1O (stereo unspecified) + CN(C)c1ccc(Nc2c3ccc(NC(=O)CCN4CCCC4)cc3nc3cc(NC(=O)CCN4CCCC4)ccc23)cc1
Second compound 0.0316 µM
  pIC50: < 5.00
Second compound 0.1 µM
  pIC50: < 5.00
Second compound 0.316 µM
  pIC50: < 5.00
Second compound 1 µM
  pIC50: < 5.00
Second compound 3.16 µM
  pIC50: < 5.00
Second compound 10 µM
  pIC50: < 5.00
[1]
  viability, T/C: 117%
[2]
  viability, T/C: 102%
[3]
  viability, T/C: 115%
[4]
  viability, T/C: 88.3%
[5]
  viability, T/C: 79.4%
[6]
  viability, T/C: 88.7%
[7]
  viability, T/C: 116%
[8]
  viability, T/C: 105%
[9]
  viability, T/C: 92.1%
[10]
  viability, T/C: 92.6%
[11]
  viability, T/C: 101%
[12]
  viability, T/C: 87.1%
[13]
  viability, T/C: 104%
[14]
  viability, T/C: 107%
[15]
  viability, T/C: 93.6%
[16]
  viability, T/C: 88.2%
[17]
  viability, T/C: 87.2%
[18]
  viability, T/C: 76.8%
[19]
  viability, T/C: 105%
[20]
  viability, T/C: 107%
[21]
  viability, T/C: 123%
[22]
  viability, T/C: 93.5%
[23]
  viability, T/C: 87.2%
[24]
  viability, T/C: 95.2%
[25]
  viability, T/C: 102%
[26]
  viability, T/C: 108%
[27]
  viability, T/C: 118%
[28]
  viability, T/C: 81.2%
[29]
  viability, T/C: 81.3%
[30]
  viability, T/C: 81.3%
[31]
  viability, T/C: 89.2%
[32]
  viability, T/C: 105%
[33]
  viability, T/C: 101%
[34]
  viability, T/C: 107%
[35]
  viability, T/C: 98%
[36]
  viability, T/C: 81.8%

## CC1COCCN1c1cc(C2(O)CC3CCC(C2)O3)c2cnn(-c3ccn[nH]3)c2n1 (stereo unspecified) + CN(C)c1ccc(Nc2c3ccc(NC(=O)CCN4CCCC4)cc3nc3cc(NC(=O)CCN4CCCC4)ccc23)cc1
Second compound 0.0316 µM
  pIC50: 6.85
Second compound 0.1 µM
  pIC50: 7.00
Second compound 0.316 µM
  pIC50: 6.74
Second compound 1 µM
  pIC50: 6.86
Second compound 3.16 µM
  pIC50: 6.83
Second compound 10 µM
  pIC50: 6.93
[1]
  viability, T/C: 77.1%
[2]
  viability, T/C: 60.4%
[3]
  viability, T/C: 25.2%
[4]
  viability, T/C: 18%
[5]
  viability, T/C: 13.7%
[6]
  viability, T/C: 6.37%
[7]
  viability, T/C: 87%
[8]
  viability, T/C: 51.1%
[9]
  viability, T/C: 24.2%
[10]
  viability, T/C: 17.4%
[11]
  viability, T/C: 12.4%
[12]
  viability, T/C: 5.43%
[13]
  viability, T/C: 82.9%
[14]
  viability, T/C: 73%
[15]
  viability, T/C: 27.6%
[16]
  viability, T/C: 16.7%
[17]
  viability, T/C: 9.78%
[18]
  viability, T/C: 5.4%
[19]
  viability, T/C: 93.8%
[20]
  viability, T/C: 59.3%
[21]
  viability, T/C: 25.9%
[22]
  viability, T/C: 17.8%
[23]
  viability, T/C: 12.5%
[24]
  viability, T/C: 5.02%
[25]
  viability, T/C: 86.8%
[26]
  viability, T/C: 61%
[27]
  viability, T/C: 27.7%
[28]
  viability, T/C: 19.2%
[29]
  viability, T/C: 14%
[30]
  viability, T/C: 6.53%
[31]
  viability, T/C: 98.5%
[32]
  viability, T/C: 54%
[33]
  viability, T/C: 25.9%
[34]
  viability, T/C: 13.8%
[35]
  viability, T/C: 15.2%
[36]
  viability, T/C: 7.27%

## Cc1[nH]c2ccccc2c1CCNCc1ccc(/C=C/C(=O)NO)cc1 + CN(C)c1ccc(Nc2c3ccc(NC(=O)CCN4CCCC4)cc3nc3cc(NC(=O)CCN4CCCC4)ccc23)cc1
Second compound 0.0316 µM
  pIC50: 6.79
Second compound 0.1 µM
  pIC50: 6.86
Second compound 0.316 µM
  pIC50: 6.77
Second compound 1 µM
  pIC50: 6.73
Second compound 3.16 µM
  pIC50: 6.82
Second compound 10 µM
  pIC50: 6.87
Second compound 0.0316 µM, first compound 0.000999 µM
  viability, T/C: 96.8%
Second compound 0.0316 µM, first compound 0.00316 µM
  viability, T/C: 81.8%
Second compound 0.0316 µM, first compound 0.00999 µM
  viability, T/C: 89.2%
[1]
  viability, T/C: 82.9%
Second compound 0.0316 µM, first compound 0.0999 µM
  viability, T/C: 74.8%
[3]
  viability, T/C: 16.3%
Second compound 0.1 µM, first compound 0.000999 µM
  viability, T/C: 86%
Second compound 0.1 µM, first compound 0.00316 µM
  viability, T/C: 102%
Second compound 0.1 µM, first compound 0.00999 µM
  viability, T/C: 86.8%
[7]
  viability, T/C: 90.3%
Second compound 0.1 µM, first compound 0.0999 µM
  viability, T/C: 63.7%
[9]
  viability, T/C: 15%
Second compound 0.316 µM, first compound 0.000999 µM
  viability, T/C: 95.3%
Second compound 0.316 µM, first compound 0.00316 µM
  viability, T/C: 88.5%
Second compound 0.316 µM, first compound 0.00999 µM
  viability, T/C: 87%
[13]
  viability, T/C: 97.3%
Second compound 0.316 µM, first compound 0.0999 µM
  viability, T/C: 77%
[15]
  viability, T/C: 19.3%
Second compound 1 µM, first compound 0.000999 µM
  viability, T/C: 101%
Second compound 1 µM, first compound 0.00316 µM
  viability, T/C: 110%
Second compound 1 µM, first compound 0.00999 µM
  viability, T/C: 73.4%
[19]
  viability, T/C: 92.4%
Second compound 1 µM, first compound 0.0999 µM
  viability, T/C: 87.8%
[21]
  viability, T/C: 18.7%
Second compound 3.16 µM, first compound 0.000999 µM
  viability, T/C: 111%
Second compound 3.16 µM, first compound 0.00316 µM
  viability, T/C: 110%
Second compound 3.16 µM, first compound 0.00999 µM
  viability, T/C: 86.6%
[25]
  viability, T/C: 107%
Second compound 3.16 µM, first compound 0.0999 µM
  viability, T/C: 68.9%
[27]
  viability, T/C: 16.2%
Second compound 10 µM, first compound 0.000999 µM
  viability, T/C: 103%
Second compound 10 µM, first compound 0.00316 µM
  viability, T/C: 121%
Second compound 10 µM, first compound 0.00999 µM
  viability, T/C: 98.8%
[31]
  viability, T/C: 95.7%
Second compound 10 µM, first compound 0.0999 µM
  viability, T/C: 61.7%
[33]
  viability, T/C: 14.7%
